Test results published in PubChem BioAssay (NCI).
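Five concentrations, 48 hours, 96-well plates. GI50 = concentration required for 50% inhibition of growth. The concentration for full growth arrest is given as TGI.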

Legend:
Experiment in all cases: DTP human tumour cell line panel, 48 h
UACC-62 melanoma = system: UACC-62 melanoma
SW-620 colon = system: SW-620 colon
IGROV1 ovarian = system: IGROV1 ovarian
NCI/ADR-RES ovarian = system: NCI/ADR-RES ovarian
SK-MEL-5 melanoma = system: SK-MEL-5 melanoma
LOX IMVI melanoma = system: LOX IMVI melanoma
T-47D breast = system: T-47D breast
SF-295 CNS = system: SF-295 CNS
HCT-116 colon = system: HCT-116 colon
DU-145 prostate = system: DU-145 prostate
TK-10 renal = system: TK-10 renal
RXF 393 renal = system: RXF 393 renal
CCRF-CEM leukemia = system: CCRF-CEM leukemia
EKVX NSCLC = system: EKVX NSCLC
SF-268 CNS = system: SF-268 CNS
786-0 renal = system: 786-0 renal
SNB-75 CNS = system: SNB-75 CNS
CAKI-1 renal = system: CAKI-1 renal
RPMI-8226 leukemia = system: RPMI-8226 leukemia
MOLT-4 leukemia = system: MOLT-4 leukemia
A549 NSCLC = system: A549 NSCLC
SNB-19 CNS = system: SNB-19 CNS
MCF7 breast = system: MCF7 breast
NCI-H460 lung = system: NCI-H460 lung
HS 578T breast = system: HS 578T breast
NCI-H23 lung = system: NCI-H23 lung
OVCAR-5 ovarian = system: OVCAR-5 ovarian
SR leukemia = system: SR leukemia
OVCAR-4 ovarian = system: OVCAR-4 ovarian
KM12 colon = system: KM12 colon
U251 CNS = system: U251 CNS
UO-31 renal = system: UO-31 renal
BT-549 breast = system: BT-549 breast
ACHN renal = system: ACHN renal
UACC-257 melanoma = system: UACC-257 melanoma
MALME-3M melanoma = system: MALME-3M melanoma
OVCAR-8 ovarian = system: OVCAR-8 ovarian
MDA-MB-435 = system: MDA-MB-435
HCT-15 colon = system: HCT-15 colon
SK-OV-3 ovarian = system: SK-OV-3 ovarian
SF-539 CNS = system: SF-539 CNS
MDA-MB-231 breast = system: MDA-MB-231 breast
HOP-62 NSCLC = system: HOP-62 NSCLC
M14 melanoma = system: M14 melanoma
SK-MEL-28 melanoma = system: SK-MEL-28 melanoma
COLO 205 colon = system: COLO 205 colon
PC-3 prostate = system: PC-3 prostate
SN12C renal = system: SN12C renal
HT29 colon = system: HT29 colon
OVCAR-3 ovarian = system: OVCAR-3 ovarian
A498 renal = system: A498 renal
HL-60(TB) leukemia = system: HL-60(TB) leukemia
NCI-H226 lung = system: NCI-H226 lung
HOP-92 NSCLC = system: HOP-92 NSCLC
HCC-2998 colon = system: HCC-2998 colon

`COc1ccc(C(=O)N2N=C(c3ccc(Br)cc3)CC2c2cn(-c3ccccc3)nc2-c2ccccc2)cc1` (stereo not given) showed a GI50 (UACC-62 melanoma) of 42.8 µM, a TGI (UACC-62 melanoma) of over 50 µM and a GI50 (SW-620 colon) of over 50 µM. It also gave a TGI (SW-620 colon) of over 50 µM, a GI50 (IGROV1 ovarian) of 19.4 µM and a TGI (IGROV1 ovarian) of over 50 µM. For the same compound, the GI50 (NCI/ADR-RES ovarian) was 33 µM, the TGI (NCI/ADR-RES ovarian) was over 50 µM and the GI50 (SK-MEL-5 melanoma) was 15 µM. For the same compound, the TGI (SK-MEL-5 melanoma) was over 50 µM, the GI50 (LOX IMVI melanoma) was 42.1 µM and the TGI (LOX IMVI melanoma) was over 50 µM. It also gave a GI50 (T-47D breast) of 13.4 µM, a TGI (T-47D breast) of over 50 µM and a GI50 (SF-295 CNS) of 17 µM. The TGI (SF-295 CNS) was over 50 µM, the GI50 (HCT-116 colon) was 2.87 µM and the TGI (HCT-116 colon) was over 50 µM. For the same compound, the GI50 (DU-145 prostate) was 25 µM, the TGI (DU-145 prostate) was over 50 µM and the GI50 (TK-10 renal) was 20.6 µM. The TGI (TK-10 renal) was over 50 µM, the GI50 (RXF 393 renal) was 6.28 µM and the TGI (RXF 393 renal) was over 50 µM. For the same compound, the GI50 (CCRF-CEM leukemia) was 9.86 µM, the TGI (CCRF-CEM leukemia) was 29.7 µM and the GI50 (EKVX NSCLC) was over 50 µM. For the same compound, the TGI (EKVX NSCLC) was over 50 µM, the GI50 (SF-268 CNS) was 34.8 µM and the TGI (SF-268 CNS) was over 50 µM. The GI50 (786-0 renal) was 19 µM, the TGI (786-0 renal) was over 50 µM and the GI50 (SNB-75 CNS) was 30.3 µM. It also gave a TGI (SNB-75 CNS) of over 50 µM, a GI50 (CAKI-1 renal) of 41.7 µM and a TGI (CAKI-1 renal) of over 50 µM. For the same compound, the GI50 (RPMI-8226 leukemia) was over 50 µM, the TGI (RPMI-8226 leukemia) was over 50 µM and the GI50 (MOLT-4 leukemia) was 11.4 µM. For the same compound, the TGI (MOLT-4 leukemia) was 25.3 µM, the GI50 (A549 NSCLC) was 4.28 µM and the TGI (A549 NSCLC) was over 50 µM. It also gave a GI50 (SNB-19 CNS) of 20.4 µM, a TGI (SNB-19 CNS) of over 50 µM and a GI50 (MCF7 breast) of over 50 µM. It also gave a TGI (MCF7 breast) of over 50 µM, a GI50 (NCI-H460 lung) of 15.3 µM and a TGI (NCI-H460 lung) of over 50 µM. For the same compound, the GI50 (HS 578T breast) was 20.5 µM, the TGI (HS 578T breast) was over 50 µM and the GI50 (NCI-H23 lung) was 20.8 µM. The TGI (NCI-H23 lung) was over 50 µM, the GI50 (OVCAR-5 ovarian) was over 50 µM and the TGI (OVCAR-5 ovarian) was over 50 µM. For the same compound, the GI50 (SR leukemia) was 7.78 µM, the TGI (SR leukemia) was 16.2 µM and the GI50 (OVCAR-4 ovarian) was 15.2 µM. It also gave a TGI (OVCAR-4 ovarian) of over 50 µM, a GI50 (KM12 colon) of over 50 µM and a TGI (KM12 colon) of over 50 µM. For the same compound, the GI50 (U251 CNS) was 13 µM, the TGI (U251 CNS) was over 50 µM and the GI50 (UO-31 renal) was 42.6 µM. For the same compound, the TGI (UO-31 renal) was over 50 µM, the GI50 (BT-549 breast) was 30.6 µM and the TGI (BT-549 breast) was over 50 µM. It also gave a GI50 (ACHN renal) of 18.9 µM, a TGI (ACHN renal) of over 50 µM and a GI50 (UACC-257 melanoma) of over 50 µM. It also gave a TGI (UACC-257 melanoma) of over 50 µM, a GI50 (MALME-3M melanoma) of over 50 µM and a TGI (MALME-3M melanoma) of over 50 µM. It also gave a GI50 (OVCAR-8 ovarian) of 8.55 µM, a TGI (OVCAR-8 ovarian) of over 50 µM and a GI50 (MDA-MB-435) of over 50 µM. For the same compound, the TGI (MDA-MB-435) was over 50 µM, the GI50 (HCT-15 colon) was over 50 µM and the TGI (HCT-15 colon) was over 50 µM. For the same compound, the GI50 (SK-OV-3 ovarian) was 12.1 µM, the TGI (SK-OV-3 ovarian) was 36.3 µM and the GI50 (SF-539 CNS) was 39.5 µM. The TGI (SF-539 CNS) was over 50 µM, the GI50 (MDA-MB-231 breast) was 5.47 µM and the TGI (MDA-MB-231 breast) was over 50 µM. The GI50 (HOP-62 NSCLC) was 9.05 µM, the TGI (HOP-62 NSCLC) was 44.5 µM and the GI50 (M14 melanoma) was 15.7 µM. The TGI (M14 melanoma) was over 50 µM, the GI50 (SK-MEL-28 melanoma) was over 50 µM and the TGI (SK-MEL-28 melanoma) was over 50 µM. For the same compound, the GI50 (COLO 205 colon) was over 50 µM, the TGI (COLO 205 colon) was over 50 µM and the GI50 (PC-3 prostate) was over 50 µM. The TGI (PC-3 prostate) was over 50 µM, the GI50 (SN12C renal) was 47.4 µM and the TGI (SN12C renal) was over 50 µM. The GI50 (HT29 colon) was over 50 µM, the TGI (HT29 colon) was over 50 µM and the GI50 (OVCAR-3 ovarian) was 23.9 µM. For the same compound, the TGI (OVCAR-3 ovarian) was over 50 µM, the GI50 (A498 renal) was 6.82 µM and the TGI (A498 renal) was 28.5 µM. It also gave a GI50 (HL-60(TB) leukemia) of 30.5 µM, a TGI (HL-60(TB) leukemia) of over 50 µM and a GI50 (NCI-H226 lung) of 18.3 µM. It also gave a TGI (NCI-H226 lung) of over 50 µM, a GI50 (HOP-92 NSCLC) of 1.79 µM and a TGI (HOP-92 NSCLC) of 15.8 µM. It also gave a GI50 (HCC-2998 colon) of over 50 µM and a TGI (HCC-2998 colon) of over 50 µM.
